Experiments:
[1] = tested on: humane Spermien; assay: Sperm chemotaxis flat capillary assay (cell density in capillary); assay type: cell-based, human
Procedure: Gefrorene Samenproben von fünf gesunden Spendern wurden aus der California Cryobank (Los Angeles, CA, USA) erhalten und für Bioassays gemäß den World Health Organization-Richtlinien (World Health Organization: Laboratory for the examination of human serum and semen-cervical mucus interaction, Cambridge University Press (1993)) vorbereitet. Nachdem die Suspensionen auf 37 °C für 10 Minuten gebracht worden waren, wurde jede Probe in HEPES-gepufferter humaner Tubarflüssigkeit (HTF; Irvine Scientific, Santa Ana, CA, USA) überführt und auf 10^7 Zellen/ml eingestellt. Die Lösungen wurden dann bei 37 °C in einer 5 %-igen CO2-Atmosphäre aufbewahrt und innerhalb von 30 Minuten für Experimente verwendet (P. Quinn, Journal of Assisted Reproductive Genetics 12, 97-105 (1995)). Die Reaktionen von Sperma auf Bourgeonal wurde (a) durch computer-assisted video motion analysis (CAVMA) gemessen, um Veränderungen in der Schwimmgeschwindigkeit (Spermaaktivierung) zu detektieren, und (b) in einem flat capillary-Assay für die Chemotaxis in der Nähe einer Diffusionsmaterialquelle untersucht. Für jede Test-oder Kontroll-Behandlung wurden fünf wiederholte Experimente unter Verwendung von Sperma der fünf Spender durchgeführt. Die Daten der Bioassays wurden statistisch durch Ein-Weg-Varianzanalyse (ANOVA) unter Verwendung eines post-hoc Scheffe-Tests (R. W. Day and G. P. Quinn, Ecol. Monogr. 59, 433-463 (1989)) analysiert. Eine Bonferroni-Korrektur wurde zum Angleichen der α-Levels für multiple Vergleiche verwendet.
Zur Untersuchung der Spermien-Chemotaxis wurden Kammern mit vier getrennten Kompartimenten verwendet, wobei die Kapillar-Methode von Adler (J. Adler, Science 153, 708-716 (1966); J. Adler, Journal of General Microbiology 74, 77-91 (1973)) modifiziert wurde. Jedes Kompartiment bestand aus zwei durch einen Kanal verbundenen Vertiefungen. Die Spermienproben (10^6 Zellen/ml) wurden jeweils in den Vertiefungen vorgelegt. Ein flaches 6 µl-Mikrokapillarröhrchen (Drummond Scientific Co.), das entweder Test- oder Kontrolllösung enthielt, wurde in den Kanal eingeführt, wobei seine beiden Enden die frischen Spermien-Suspensionen innerhalb der zwei Vertiefungen berührten. Nach vier Stunden Inkubation bei 37 °C wurden die Inhalte jeder Kapillare in die Vertiefung eines Toxoplasmose-Objektträgers transferiert, hitzefixiert und mit 0,1 Acridin-Orange 1 Minute lang gefärbt. Zellzählungen wurden dann unter Verwendung eines Olympus-BH2-Mikroskopes, das für Phasenkontrast- und Epifluoreszenz-Applikationen ausgerüstet war (J. A. Riffell, P. J. Krug, R. K. Zimmer, Journal of Experimental Biology 205, 1439-1450 (2002); C. C. Gee and R. K. Zimmer-Faust, Journal of Experimental Biology 200, 3185-3192 (1997)), bei 67-facher Vergrößerung durchgeführt.
Zur Bestimmung der Chemoattraktion von Spermien und des Effekts eines Antagonisten wurde Bourgeonal allein bei 10^-7 M und in Kombination mit 10^-6, 10^-7, 10^-8 oder 10^-9 M n-Undecanal getestet. Während der Durchführung der Chemotaxis-Bioassays wurde das Spermienverhalten innerhalb eines Bereiches von 300 µm vor jeder Kapillarspitze 30 Sekunden lang auf Video aufgenommen. Die Videoaufnahme begann 10 bis 15 Minuten nach dem Experimentbeginn, um die Bildung eines chemischen Gradienten zu ermöglichen. Die Spermien-Orientierung zum Gradienten hin wurde unter Verwendung von CAVMA quantifiziert. […]

[2] = tested on: menschliche Nase; assay: Odour perception test on about 100 human subjects (agonist, antagonist, agonist again); assay type: in vivo
Text: An ca. 100 Probanden wurde die Wirkung des Agonisten (Bourgeonal, "Duft A") und des Antagonisten (n-Undecanal, "Duft B") getestet. Dabei wurde zuerst an Duft A (1:100 verdünnt) gerochen, dann wurde in kurzem zeitlichen Abstand (1 - 3 s) an Duft B (ebenfalls 1:100 verdünnt) gerochen, anschließend wurde direkt wieder an Duft A gerochen. Die Probanden wurden nach ihrem Riecheindruck befragt: • Alle 100 Probanden konnten beim jeweils ersten Riechen spezifisch Duft A und B wahrnehmen und unterscheiden. Ca. 90 der 100 Testpersonen beschrieben, dass beim zweiten Riechen an Duft A kein Dufteindruck ausgelöst wurde. Nach ca. 1 Minute war Duft A bereits wieder riechbar.

[3] = tested on: humane Spermien; assay: Sperm orientation towards capillary tip (CAVMA, circular statistics, Rayleigh test); assay type: cell-based, human; conditions: Bourgeonal 10^-8 M and higher
Text: Zur Bestimmung der Chemoattraktion von Spermien und des Effekts eines Antagonisten wurde Bourgeonal allein bei 10^-7 M und in Kombination mit 10^-6, 10^-7, 10^-8 oder 10^-9 M n-Undecanal getestet. Während der Durchführung der Chemotaxis-Bioassays wurde das Spermienverhalten innerhalb eines Bereiches von 300 µm vor jeder Kapillarspitze 30 Sekunden lang auf Video aufgenommen. Die Videoaufnahme begann 10 bis 15 Minuten nach dem Experimentbeginn, um die Bildung eines chemischen Gradienten zu ermöglichen. Die Spermien-Orientierung zum Gradienten hin wurde unter Verwendung von CAVMA quantifiziert. Durch Anwendung zirkulärer Statistiken wurde die mittlere Vektorlänge (r) und die Schwimmrichtung berechnet, um das Bewegungsmuster der untersuchten Spermien zu beschreiben. Der Winkel der Spermienorientierung wurde in Bezug auf einen Ursprung angegeben, der als die kürzeste Verbindung zwischen jeder individuellen Zelle und der Kapillarenspitze (0°) definiert wurde. Um zu bestimmen, ob die Zellbewegung innerhalb des chemischen Gradienten nicht-zufällig war, wurde jede mittlere Ausrichtung mit einer uniformen zirkulären Verteilung unter Verwendung eines unimodalen Rayleigh-Tests (J. H. Zar, Biostatistical Analysis (1984)) verglichen.

SMILES | Effekt auf das Spermienverhalten, Zelldichte ([1]; 10^-7 M alone, P > 0,99) | Zelldichte als Antwort auf 10^-7 M Bourgeonal relativ zur HTF-Kontrolle ([1]; co-applied with 10^-6, 10^-7 or 10^-8 M n-Undecanal, P > 0,99) | Testpersonen ohne Dufteindruck beim zweiten Riechen an Duft A ([2]; Duft B 1:100 sniffed 1 - 3 s after Duft A 1:100, then Duft A again) | Zeit, nach der Duft A wieder riechbar war ([2]; after sniffing Duft B) | Zellbewegungsmuster in der Nähe der Kapillarspitzen [3] | mittlere Vektorlänge (r), Rayleigh-Test ([3]; all comparisons) | Konzentration ohne weiteren Anstieg der Zelldichte [1] | EC50 ([1]; Homo sapiens, Sperm, 4 h, 37 °C, read-out: ED50 (Konzentration, die die halbmaximale Antwort hervorruft), Zelldichte) [nM] | Konzentrationen mit signifikanten Antworten im Verhältnis zur HTF-Kontrolle, Zelldichte ([1]; Scheffé test P ≤ 0,03)
CCCCCCCCCCC=O [n-Undecanal] | keinen messbaren Effekt | nicht signifikant erhöht | Ca. 90 der 100 Testpersonen | ca. 1 Minute |  |  |  |  | 
CC(C)(C)c1ccc(CCC=O)cc1 [Bourgeonal] |  |  |  |  | signifikant nicht-zufällig | ≥ 0,45 | > 10^-6 M | 30 | ≥ 10^-8 M

Reference: patent publication EP1551873B1, “AGONISTS AND ANTAGONISTS OF THE HUMAN ODORANT RECEPTOR OR17-4 AND USES THEREOF” (Symrise AG, priority 2002, dated 2004)
